Test results published in patent US20250296960A1, “PEPTIDE COMPOSITIONS AND METHODS OF USE THEREOF” (priority 2022, published 2025).
Entries after “also recorded” stand apart in the source; their conditions may differ. Like-named read-outs stand apart in the source and are kept apart here. Blank lines part the entries; values can stand above or below the molecule they belong to. Numbered stars: 1 amine (or outer) side, 2 acyl side, 3 side chain; on linkers, the order of the positions; unused ones are H or OH. Square brackets hold non-standard residues; d marks the D form. Side chains are listed from the residue outwards. Peptide text beside a SMILES is read from it. * marks the point of attachment. C18 diacid = O=C(O)CCCCCCCCCCCCCCCCC(=O)*; γGlu = O=C(O)[C@H](CCC(=O)[*:2])N[*:1]; αMeR = C[C@](N)(CCCNC(=N)N)C(=O)O; AEEA = NCCOCCOCC(=O)O; Aib = CC(C)(N)C(=O)O

Columns and labels:
human GIPR = biological target: T1, human GIPR (Homo sapiens, UniProt P48546); assay: cAMP assay (HitHunter cAMP) in GIPR-expressing CHO-K1 cells (GIPR+ cells); format: cell-based; conditions: for activity on GIPR compared to SEQ ID NO. 77, in words: Example 13; for Ratio vs. GLP-1R, GIPR / Relative % to native ligand, GIPR: Table 36
T1 construct: host or cells: CHO-K1
T1 sequence (P48546 22-466): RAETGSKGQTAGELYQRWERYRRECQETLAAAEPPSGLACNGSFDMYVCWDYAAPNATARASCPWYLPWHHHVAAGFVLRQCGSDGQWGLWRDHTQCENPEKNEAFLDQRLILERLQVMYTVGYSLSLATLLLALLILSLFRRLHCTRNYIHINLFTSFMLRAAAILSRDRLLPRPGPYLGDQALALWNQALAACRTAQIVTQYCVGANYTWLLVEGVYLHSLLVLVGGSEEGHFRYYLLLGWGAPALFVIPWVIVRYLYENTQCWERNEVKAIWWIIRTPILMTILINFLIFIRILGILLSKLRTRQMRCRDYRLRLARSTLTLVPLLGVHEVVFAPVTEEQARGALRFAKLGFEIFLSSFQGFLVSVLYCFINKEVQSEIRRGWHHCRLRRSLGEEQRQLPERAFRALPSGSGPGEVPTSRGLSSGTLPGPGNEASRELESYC
Outline: (§1)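 Luminescent cAMP read-out: after 30 min peptide stimulation at 37 °C in cAMP assay buffer, receptor-expressing CHO-K1 cells (seeded 7×10^3/well the night before) received antibody and detection reagents for 1 h, then Solution A for 3 h, at room temperature in the dark.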

[1] = In vitro enzymatic stability against FaSSIF/P (pancreatin in FaSSIF, pH 6.5); format: in vitro ADME; conditions: simulated gi fluid, pH 6.5, Half-life (min), FaSSIF/P
human GCGR = biological target: T2, human GCGR (Homo sapiens, UniProt P47871); assay: cAMP assay (HitHunter cAMP) in GCGR-expressing CHO-K1 cells (GCGR+ cells); format: cell-based; conditions: Table 36
T2 construct: host or cells: CHO-K1
Outline: as §1

trypsin = format: in vitro ADME
Experimental: (§2) For the stability against trypsin, the test samples were prepared by mixing stock solutions of peptide and trypsin dissolved in 50 mM PBS (pH 7.8) containing 0.02% PS80 in a weight ratio of 10:1. The test samples were incubated at 37° C. for 180 min. The sampling from test samples was proceeded at the predetermined time points (10, 30, 60, 90, 120, and 180 min) and stopped by 10% TFA solution.
(§3) Analytical HPLC was performed to determine the remaining amount on an ACQUITY Premier system (Waters, USA) with an ACQUITY CSH C18 column (Waters, USA) at 35° C. using 0.1% TFA in water and acetonitrile. The remaining amount was determined as a percentage of the peak area at the sampling time point relative to the peak area of the initial sample.

[2] = format: in vitro ADME; conditions: pH 7.8
Experimental: as §2, §3

human GLP-1R = biological target: T3, human GLP-1R (Homo sapiens, UniProt P43220); assay: cAMP assay (HitHunter cAMP) in GLP-1R-expressing CHO-K1 cells (GLP-1R+ cells); format: cell-based; conditions: for activity on GLP-1R compared to SEQ ID NO. 77, in words: Example 13; for Ratio vs. GLP-1R, GLP-1R / Relative % to native ligand, GLP-1R: Table 36
T3 construct: host or cells: CHO-K1
Outline: as §1

[3] = biological target: human glucose-dependent insulinotropic polypeptide receptor (GIPR), expressed on CHO-K1 cells (human) (UniProt P48546); assay: cell-based or functional assay
[4] = biological target: human glucose-dependent insulinotropic polypeptide receptor (GIPR), expressed on CHO-K1 cells (human) (UniProt P48546); assay: cell-based or functional assay; remark: listed apart in the source
FaSSIF/P = assay: In vitro enzymatic stability against FaSSIF/P (pancreatin in FaSSIF, pH 6.5); format: in vitro ADME
[5] = In vivo efficacy in mAMLN (obese and NASH) mice, 4 weeks; conditions: after 4 weeks
[6] = In vivo efficacy in CDA-HFD (NASH) mice, 4 weeks; conditions: Example 16
Experimental: This study was conducted to evaluate the efficacy of SEQ ID NOs. […] SEQ ID NOs. The peptides were delivered at 0.02% PS80 in PBS and dosing volume was 10 mL/kg. Control group was administered by vehicle without peptide.
Body weight changes were monitored Q2D; serum chemistry (end); hepatic TG (end); and histological analysis (end). […]

T3 sequence (P43220 24-463): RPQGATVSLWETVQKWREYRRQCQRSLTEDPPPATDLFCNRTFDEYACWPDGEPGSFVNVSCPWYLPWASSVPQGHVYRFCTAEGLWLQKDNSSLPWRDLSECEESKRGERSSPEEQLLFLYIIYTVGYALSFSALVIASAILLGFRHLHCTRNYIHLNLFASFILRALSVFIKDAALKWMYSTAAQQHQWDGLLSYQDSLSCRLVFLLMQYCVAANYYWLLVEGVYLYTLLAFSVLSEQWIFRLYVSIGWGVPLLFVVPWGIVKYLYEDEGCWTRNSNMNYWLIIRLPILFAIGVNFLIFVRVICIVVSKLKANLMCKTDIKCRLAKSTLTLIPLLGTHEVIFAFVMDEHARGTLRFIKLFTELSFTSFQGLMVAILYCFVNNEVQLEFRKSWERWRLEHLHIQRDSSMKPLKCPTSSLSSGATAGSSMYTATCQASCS
T2 sequence (P47871 26-477): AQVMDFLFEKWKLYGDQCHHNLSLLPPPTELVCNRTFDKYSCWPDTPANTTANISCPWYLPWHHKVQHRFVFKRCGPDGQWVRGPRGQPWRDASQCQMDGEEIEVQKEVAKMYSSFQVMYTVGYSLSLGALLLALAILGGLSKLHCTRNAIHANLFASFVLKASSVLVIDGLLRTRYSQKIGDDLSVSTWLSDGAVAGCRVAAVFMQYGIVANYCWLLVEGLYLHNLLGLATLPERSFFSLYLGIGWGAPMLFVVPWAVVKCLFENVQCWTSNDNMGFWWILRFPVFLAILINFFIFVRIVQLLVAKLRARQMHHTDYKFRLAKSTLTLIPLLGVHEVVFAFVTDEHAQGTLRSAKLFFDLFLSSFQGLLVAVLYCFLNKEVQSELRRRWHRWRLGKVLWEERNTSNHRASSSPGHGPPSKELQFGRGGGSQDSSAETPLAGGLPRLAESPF

Molecule: CSCC[C@H](NC(=O)[C@H](Cc1ccc(O)cc1)NC(=O)[C@H](CC(=O)O)NC(=O)[C@H](CC(C)C)NC(=O)[C@H](CC(C)C)NC(=O)[C@H](CCCCNC(=O)COCCOCCNC(=O)COCCOCCNC(=O)CC[C@H](NC(=O)CCCCCCCCCCCCCCCCC(=O)O)C(=O)O)NC(=O)[C@H](CO)NC(=O)[C@H](Cc1ccc(O)cc1)NC(=O)[C@H](CC(=O)O)NC(=O)[C@H](CO)NC(=O)[C@@H](NC(=O)[C@H](Cc1ccccc1)NC(=O)[C@@H](NC(=O)CNC(=O)[C@H](CCC(N)=O)NC(=O)C(C)(C)NC(=O)[C@@H](N)Cc1ccc(O)cc1)[C@@H](C)O)[C@@H](C)O)C(=O)N[C@@H](CCSC)C(=O)N[C@@H](CCC(N)=O)C(=O)N[C@@H](CCC(N)=O)C(=O)N[C@@H](CC(=O)O)C(=O)N[C@@H](Cc1ccccc1)C(=O)N[C@H](C(=O)N[C@@H](CCC(N)=O)C(=O)N[C@@H](Cc1c[nH]c2ccccc12)C(=O)N[C@@H](CC(C)C)C(=O)N[C@@H](CC(C)C)C(=O)N[C@@H](CCC(=O)O)C(=O)NCC(=O)NCC(=O)N1CCC[C@H]1C(=O)N[C@@H](CO)C(=O)N[C@@H](CO)C(=O)NCC(=O)N[C@@H](C)C(=O)N1CCC[C@H]1C(=O)N1CCC[C@H]1C(=O)N1CCC[C@H]1C(=O)N[C@@H](CO)C(N)=O)C(C)C [compound 100] (H-Y[Aib]QGTFTSDYSK([AEEA-AEEA-γGlu-C18 diacid])LLDYMMQQDFVQWLLEGGPSSGAPPPS-NH2; N-terminus assumed)
- activity on GIPR compared to SEQ ID NO. 77, in words (human GIPR): decreased
- Ratio vs. GLP-1R, GIPR (human GIPR): 103
- Relative % to native ligand, GIPR (human GIPR): 55%
- half-life [1]: 0.753 h
- Ratio vs. GLP-1R, GCGR (human GCGR): 56
- Relative % to native ligand, GCGR (human GCGR): 30%
- stability against trypsin compared with SEQ ID NO. 77, in words (trypsin): increased half-lives
- half-life [2]: > 7.23 h
- activity on GLP-1R compared to SEQ ID NO. 77, in words (human GLP-1R): decreased
- Ratio vs. GLP-1R, GLP-1R (human GLP-1R): 100
- Relative % to native ligand, GLP-1R (human GLP-1R): 54%

- EC50 (nM), cAMP assay [3]: 2.03 nM
- EC50 (nM), cAMP assay [4]: 0.732 nM
- EC50, c-AMP release (FIG. 8C) [4]: 0.24 nM
- EC50, c-AMP release (FIG. 9C) [4]: 0.24 nM
- EC50, cAMP release (FIG. 7C) [4]: 1.78 nM
- Percentage change in EC50 relative to GIP at human GIPR (%) [4]: 100%
Molecule: GIP (native ligand) (from UniProt P09681 52-93)

Molecule: CSCC[C@H](NC(=O)[C@H](Cc1ccc(O)cc1)NC(=O)[C@H](CC(=O)O)NC(=O)[C@H](CC(C)C)NC(=O)[C@H](CC(C)C)NC(=O)[C@H](CCCCNC(=O)COCCOCCNC(=O)COCCOCCNC(=O)CC[C@H](NC(=O)CCCCCCCCCCCCCCCCC(=O)O)C(=O)O)NC(=O)[C@H](CO)NC(=O)[C@H](Cc1ccc(O)cc1)NC(=O)[C@H](CC(=O)O)NC(=O)[C@H](CO)NC(=O)[C@@H](NC(=O)[C@H](Cc1ccccc1)NC(=O)[C@@H](NC(=O)CNC(=O)[C@H](CCC(N)=O)NC(=O)C(C)(C)NC(=O)[C@@H](N)Cc1ccc(O)cc1)[C@@H](C)O)[C@@H](C)O)C(=O)N[C@@H](CCSC)C(=O)N[C@@H](CCC(N)=O)C(=O)N[C@@H](Cc1c[nH]cn1)C(=O)N[C@@H](CC(=O)O)C(=O)N[C@@H](Cc1ccccc1)C(=O)N[C@H](C(=O)N[C@@H](CCC(N)=O)C(=O)N[C@@H](Cc1c[nH]c2ccccc12)C(=O)N[C@@H](CC(C)C)C(=O)N[C@@H](CC(C)C)C(=O)N[C@@H](CCC(=O)O)C(=O)NCC(=O)NCC(=O)N1CCC[C@H]1C(=O)N[C@@H](CO)C(=O)N[C@@H](CO)C(=O)NCC(=O)N[C@@H](C)C(=O)N1CCC[C@H]1C(=O)N1CCC[C@H]1C(=O)N1CCC[C@H]1C(=O)N[C@@H](CO)C(N)=O)C(C)C [compound 99] (H-Y[Aib]QGTFTSDYSK([AEEA-AEEA-γGlu-C18 diacid])LLDYMMQHDFVQWLLEGGPSSGAPPPS-NH2; N-terminus assumed)
- Ratio vs. GLP-1R, GIPR (human GIPR): 3237
- Relative % to native ligand, GIPR (human GIPR): 1132%
- half-life [1]: 0.632 h
- Ratio vs. GLP-1R, GCGR (human GCGR): 80
- Relative % to native ligand, GCGR (human GCGR): 28%
- stability against trypsin compared with SEQ ID NO. 77, in words (trypsin): increased half-lives
- half-life [2]: > 7.23 h
- activity on GLP-1R compared to SEQ ID NO. 77, in words (human GLP-1R): slightly decreased
- Ratio vs. GLP-1R, GLP-1R (human GLP-1R): 100
- Relative % to native ligand, GLP-1R (human GLP-1R): 35%

Molecule: CSCC[C@H](NC(=O)[C@H](Cc1ccc(O)cc1)NC(=O)[C@H](CC(=O)O)NC(=O)[C@H](CC(C)C)NC(=O)[C@H](CC(C)C)NC(=O)[C@H](CCCCNC(=O)COCCOCCNC(=O)COCCOCCNC(=O)CC[C@H](NC(=O)CCCCCCCCCCCCCCCCC(=O)O)C(=O)O)NC(=O)[C@H](CO)NC(=O)[C@H](Cc1ccc(O)cc1)NC(=O)[C@H](CC(=O)O)NC(=O)[C@H](CO)NC(=O)[C@@H](NC(=O)[C@H](Cc1ccccc1)NC(=O)[C@@H](NC(=O)CNC(=O)[C@H](CCC(N)=O)NC(=O)C(C)(C)NC(=O)[C@@H](N)Cc1ccc(O)cc1)[C@@H](C)O)[C@@H](C)O)C(=O)N[C@@H](CCSC)C(=O)N[C@@H](CCC(N)=O)C(=O)N[C@@](C)(CCCNC(=N)N)C(=O)N[C@@H](CC(=O)O)C(=O)N[C@@H](Cc1ccccc1)C(=O)N[C@H](C(=O)N[C@@H](CCC(N)=O)C(=O)N[C@@H](Cc1c[nH]c2ccccc12)C(=O)N[C@@H](CC(C)C)C(=O)N[C@@H](CC(C)C)C(=O)N[C@@H](CCC(=O)O)C(=O)NCC(=O)NCC(=O)N1CCC[C@H]1C(=O)N[C@@H](CO)C(=O)N[C@@H](CO)C(=O)NCC(=O)N[C@@H](C)C(=O)N1CCC[C@H]1C(=O)N1CCC[C@H]1C(=O)N1CCC[C@H]1C(=O)N[C@@H](CO)C(N)=O)C(C)C [compound 101] (H-Y[Aib]QGTFTSDYSK([AEEA-AEEA-γGlu-C18 diacid])LLDYMMQ[αMeR]DFVQWLLEGGPSSGAPPPS-NH2; N-terminus assumed)
- activity on GIPR compared to SEQ ID NO. 77, in words (human GIPR): increased
- Ratio vs. GLP-1R, GIPR (human GIPR): 65
- Relative % to native ligand, GIPR (human GIPR): 472%
- stability against FaSSIF/P compared with SEQ ID NO. 77, in words (FaSSIF/P): improved stability
- half-life [1]: 1.18 h
- Ratio vs. GLP-1R, GCGR (human GCGR): 12
- Relative % to native ligand, GCGR (human GCGR): 89%
- stability against trypsin compared with SEQ ID NO. 77, in words (trypsin): improved stability
- half-life [2]: > 7.23 h
- NAS score, in words [5]: statistically decreased more than the level of tirzepatide
- hepatic steatosis (histological score), in words [5]: significantly reduced
- liver weight, visceral fat weight, liver enzymes, and liver steatosis compared to vehicle-treated control, in words [5]: significantly reduced
- efficacy in the NASH model, in words [6]: most excellent efficacy
- hepatic steatosis score compared to CDA-HFD control, in words [6]: significantly reduced
- scores of hepatocytes inflammation and NAS score, in words [6]: statistically reduced; also recorded: most decreased
- body weight compared to vehicle-treated control, in words ([6]; 20 nmol/kg s.c. Q2D, 4 weeks): reduce body weight; also recorded: greatest weight loss
- liver enzymes and liver steatosis compared to vehicle-treated control, in words ([6]; end of treatment): reduce liver enzymes and liver steatosis significantly
- activity on GLP-1R compared to SEQ ID NO. 77, in words (human GLP-1R): increased
- Ratio vs. GLP-1R, GLP-1R (human GLP-1R): 100
- Relative % to native ligand, GLP-1R (human GLP-1R): 722%
